Test results taken from US6780992B2, “Heterocyclic compounds, process for their preparation and pharmaceutical compositions containing them and their use in the treatment of diabetes and related diseases” (Dr. Reddy's Laboratories Ltd., priority 1996, dated 2004).
Where a name gives a salt, the structure may show the parent alone. Read-outs that look alike come from different tables or passages of the source.

Tested on: C57BL/KsJ-db/db mice
Assay: blood sugar and triglycerides lowering in db/db mice, oral gavage daily for 6 days
Type: in vivo
Conditions: for inhibition in vivo at 100 mg/kg/day / inhibition in vivo at 30 mg/kg/day / inhibition in vivo at 10 mg/kg/day: Mus musculus, 144 h, 6 days treated; for inhibition in vivo at 100 mg/kg/day: dose 100 mg/kg/day oral gavage; for inhibition in vivo at 30 mg/kg/day: dose 30 mg/kg/day oral gavage; for inhibition in vivo at 10 mg/kg/day: dose 10 mg/kg/day oral gavage
Excerpt: Mutation in colonies of laboratory animals and different sensitivities to dietary regimens have made the development of animal models with non-insulin dependent diabetes associated with obesity and insulin resistance possible. Genetic models such as db/db and ob/ob (See Diabetes, (1982) 31(1): 1-6) in mice and fa/fa and zucker rats have been developed by the various laboratories for understanding the pathophysiology of disease and testing the efficacy of new antidiabetic compounds (Diabetes, (1983) 32: 830-838; Annu. Rep. Sankyo Res. Lab. (1994) 46: 1-57). The homozygous animals, C57 BL/KsJ-db/db mice developed by Jackson Laboratory, US, are obese, hyperglycemic, hyperinsulinemic and insulin resistant (J. Clin. Invest., (1990) 85: 962-967), whereas heterozygous are lean and normoglycemic. In db/db model, mouse progressively develops insulinopenia with age, a feature commonly observed in late stages of human type II diabetes when blood sugar levels are insufficiently controlled. The state of pancreas and its course vary according to the models. Since this model resembles that of type II diabetes mellitus, the compounds of the present invention were tested for blood sugar and triglycerides lowering activities.
Male C57BL/KsJ-db/db mice of 8 to 14 weeks age, having body weight range of 35 to 60 grams, procured from the Jackson Laboraotory, USA, were used in the experiment. The mice were provided with standard feed (National Institute of Nutrition, Hyderabad, India) and acidified water, ad libitum. The animals having more than 300 mg/dl blood sugar were used for testing. The number of animals in each group was 4.
The random blood sugar and triglyceride levels were measured by collecting blood (100 μl) through orbital sinus, using heparinised capillary in tubes containing EDTA which was centrifuged to obtain plasma. The plasma glucose and triglycerides levels were measured spectrometrically, by glucose oxidase and glycerol-3-PO4 oxidase/peroxidase enzyme (Dr. Reddy's Lab. Diagnostic Division Kits, Hyderabad, India) methods respectively. On 6th day the blood samples were collected one hour after administration of test compounds/vehicle for assessing the biological activity.
Test compounds were suspended on 0.25% carboxymethyl cellulose and administered to test group at a dose of 10 mg to 100 mg/kg through oral gavage daily for 6 days. The control group received vehicle (dose 10 ml/kg).
The blood sugar and triglycerides lowering activities of the test compound was calculated according to the formula: [formula]

[1] = read-out: Maximum reduction in blood glucose level (%)
[2] = read-out: Triglyceride lowering (%)

| SMILES | inhibition in vivo at 100 mg/kg/day [1] | inhibition in vivo at 100 mg/kg/day [2] | inhibition in vivo at 30 mg/kg/day [1] | inhibition in vivo at 30 mg/kg/day [2] | other results |
| --- | --- | --- | --- | --- | --- |
| CCc1nc(C)cc(=O)n1CCOc1ccc(/C=C2\SC(=O)NC2=O)cc1 [Example 3, 5-[4-[2-[2-Ethyl-4-methyl-6-oxo-1,6-dihydro-1-pyrimidinyl]ethoxy]phenylmethylene]thiazolidine-2,4-dione] | 67% | 12% |  |  |  |
| CCc1c(C)nc(CC)n(CCOc2ccc(/C=C3\SC(=O)NC3=O)cc2)c1=O [Example 6, 5-[4-[2-[2,Diethyl-4-methyl-6-oxo-1,6-dihydro-1-pyrimidinyl]ethoxy]phenylmethylene]thiazolidine-2,4-dione] | 41% | 31% |  |  |  |
| CCc1nc(-c2ccccc2)cc(=O)n1CCOc1ccc(/C=C2\SC(=O)NC2=O)cc1 [Example 7, 5-[4-[2-[2-Ethyl-4phenyl-6-oxo-1,6-dihydro-1-pyrimidinyl]ethoxy]phenylmethylene]thiazolidine-2,4-dione] | 66% | 35% |  |  |  |
| Cc1nc2ccccc2c(=O)n1CCOc1ccc(/C=C2\SC(=O)NC2=O)cc1 [Example 9, 5-[4-[2-[2-Methyl-4-oxo-3,4-dihydro-3-quinazolinyl]ethoxy]phenylmethylene]thiazolidine-2,4-dione] |  |  | 46% | 35% |  |
| Cc1nc2ncccc2c(=O)n1CCOc1ccc(/C=C2\SC(=O)NC2=O)cc1 [Example 11, 5-[4-[2-[8-Aza-2-methyl-4-oxo-3,4-dihydro-3-quinazolinyl]ethoxy]phenylmethylene]thiazolidine-2,4-dione] |  |  | 32% | 42% |  |
| Cn1c(COc2ccc(/C=C3\SC(=O)NC3=O)cc2)nc2ccccc2c1=O [Example 12, 5-[4-[[3-Methyl-4-oxo-3,4-dihydro-2-quinazolinyl]methoxy]phenylmethylene]thiazolidine-2,4-dione] | 71% | 57% |  |  |  |
| CCn1c(COc2ccc(/C=C3\SC(=O)NC3=O)cc2)nc2ccccc2c1=O [Example 13, 5-[4-[[3-Ethyl-4-oxo-3,4-dihydro-2-quinazolinyl]methoxy]phenylmethylene]thiazolidine-2,4-dione] | 52% | 57% |  |  |  |
| CCCc1nc(C)cc(=O)n1CCOc1ccc(CC2SC(=O)NC2=O)cc1 (stereo not drawn) [Example 17, 5-[4-[2-[4-methyl-2-Propyl-6-oxo-1,6-dihydro-1-pyrimidinyl]ethoxy]phenylmethyl]thiazolidine-2,4-dione] |  |  | 65% | 45% |  |
| CCc1nc(C)cc(=O)n1CCOc1ccc(CC2SC(=O)NC2=O)cc1 (stereo not drawn) [Example 19, 5-[4-[2-[2-Ethyl-4-methyl-6-oxo-1,6-dihydro-1-pyrimidinyl]ethoxy]phenylmethyl]thiazolidine-2,4-dione] |  |  | 73% | 70% |  |
| CCc1nc(-c2ccccc2)cc(=O)n1CCOc1ccc(CC2SC(=O)NC2=O)cc1 (stereo not drawn) [Example 21, 5-[4-[2-[2-Ethyl-4phenyl-6-oxo-1,6-dihydro-1-pyrimidinyl]ethoxy]phenylmethyl]thiazolidine-2,4-dione] |  |  | 64% | 76% |  |
| Cn1c(COc2ccc(CC3SC(=O)NC3=O)cc2)nc2ccccc2c1=O (stereo not drawn) [Example 22, 5-[4-[[3-Methyl-4-oxo-3,4-dihydro-2-quinazolinyl]methoxy]phenylmethyl]thiazolidine-2,4-dione] |  |  | 55% | 41% |  |
| CCc1nc2ccccc2c(=O)n1CCOc1ccc(CC2SC(=O)NC2=O)cc1 (stereo not drawn) [Example 24, 5-[4-[2-[2-Ethyl-4-oxo-3,4-dihydro-3-quinazolinyl]ethoxy]phenylmethyl]thiazolidine-2,4-dione] |  |  |  |  | inhibition in vivo at 10 mg/kg/day [1]: 63%; inhibition in vivo at 10 mg/kg/day [2]: 17% |
| Cn1c(COc2ccc(CC3SC(=O)NC3=O)cc2)nc2ccccc2c1=O (stereo not drawn) [Example 28, 5-[4-[[3-Methyl-4oxo-3,4-dihydro-2-quinazolinyl]methoxy]phenylmethyl]thiazolidine-2,4-dione sodium salt] |  |  |  |  | inhibition in vivo at 10 mg/kg/day [1]: 63%; inhibition in vivo at 10 mg/kg/day [2]: 57% |
| Cc1c(C)c2c(c(C)c1O)CCC(C)(COc1ccc(CC3SC(=O)NC3=O)cc1)O2 (stereo not drawn) [Troglitazone, reference compound] |  |  |  |  | reduction in random blood sugar level (100 mg/kg daily dose, on 6th day): 28% |
